# Experimental data: patent EP0039860A1, “Surfactants, their preparation and their use in cosmetic cleansing compositions, and cosmetic cleansing compositions mild to the skin containing them” (Henkel Kommanditgesellschaft auf Aktien, priority 1980, dated 1981)
# System: Zein
# Assay: Zein test (skin compatibility: nitrogen solubilised from zein by surfactant solution, micro-Kjeldahl)
# Parameters: species or system Mais
# Settings: 20 %ig surfactant solution, pH 7; 40 ml with 2 g Zein, 1 Stunde, 35° C; lower Zein number = better skin compatibility
# Text: Zur Bestimmung der Hautfreundlichkeit der erfindungsgemäßen neuartigen Tenside wurde der Zein-Test durchgeführt. Als Testprodukt diente das Neutralisationsprodukt von Fettalkohol-C12-C14-ether-monoschwefelsäureester mit circa 2 Mol Ethylenoxid mit N-ß-Hydroxyethyl-N-methyl- glucamin (Produkt A). Als Vergleichssubstanzen dienten Nonylbenzolsulfonat (Na-Salz), Natriumlaurylsulfat und Natrium-Fettalkohol-C12-C14-ethersulfat mit 2-Ethylenoxidgruppen im Molekül.
# Die bei dem Zeintest erhaltene Zeinzahl gibt an, wieviel mg Stickstoff in 100 ml einer Tensidlösung enthalten sind, wenn diese 1 Stunde lang bei 35° C mit 2 g Zein versetzt wird. Je niedriger die Zeinzahl, um so besser ist die Hautverträglichieit des Produktes. Der Zein-Test wird in der nachfolgend beschriebenen Weise durchgeführt:
# 1. Ansetzen der Stammlösunsen:
# Die 1/20 n Natronlauge wird mit Benzoesäure (DAB 6) eingestellt. Dazu werden circa 40 bis 50 mg Benzoesäure in einen 100 ml Erlenmeyerkolben eingewogen. und in ungefähr 25 ml neutralisiertem Ethylalkohol gelöst. Zum Neutralisieren wird der Alkohol mit einigen Tropfen verdünnter Natronlauge gegen Phenolphthalein bis zur bleibenden Rosafärbung versetzt. Die gelöste Benzoesäure wird nun mit der 1/20 n Natronlauge bis zur bleibenden Rosafärbung titriert und der Faktor berechnet: [drawing 2]
# 1.2. Schwefelsäure 1/20 n
# Aus einer Mikrobürette läßt man 10 ml der 1/20 n Schwefelsäure in einen 100 ml Erlenmeyerkolben einlaufen, gibt 5 Tropfen Tashiro-Indikator hinzu und bringt die Vorlage am Destillierapparat an. In den Destillierkolben gibt man 20 ml 25 %ige Natronlauge, verdünnt mit destilliertem Wasser bis zur Hälfte des Volumens und destilliert 7 bis 10 Minuten. Die Vorlage wird nun abgenommen, und, nachdem mit etwas destilliertem Wasser das in Schwefelsäure eintauchende Glasrohr abgespült wurde, titriert man mit 1/20 n Natronlauge von violett auf blaugrün. Der erhaltene Wert ist der Blind-_ wert, der auch gleichzeitig eine Kontrolle des Destillier-Apparates ist und regelmäßig bestimmt wird. Diese Zahl wird der Berechnung des Stickstoffgehaltes zugrunde gelegt.
# […] Methylrot in 300 ml Ethanol und 0,40 g Methylenblau in 400 ml 50 %igem Ethanol.
# 1.4. 25 %ige Natronlauge aus NaOH-Plätzchen.
# 1.5. Das zu prüfende Tensid wird als x-prozentige Lösung mit destilliertem Wasser angesetzt und auf pH 7 eingestellt.
# 2. Aufbereitung des Zein:
# Das verwendete Zein aus Mais (MG 20.000 - 30.000; ~98,5 % Protein) wird im Vakuumtrockenschrank bei maximal 40° C bis zur Gewichtskonstanz getrocknet.
# 3. Durchführung des Tests:
# In eine 50 ml-Enghalsflasche mit Schraubverschluß werden 40 ml Tensidlösung pipettiert und in einem Wasserbad auf 35° C temperiert. […]
row,Compound,Zein-Zahl [mg Stickstoff in 100 ml]
1,CCCCCCCCCCCCOS(=O)(=O)O [Natriumlaurylsulfat],535
2,Natrium-Fettalkohol-C12-C14-ethersulfat mit 2-Ethylenoxidgruppen im Molekül [Fettalkohol-C12-C14-ethersulfat mit 2 EO],329
3,Neutralisationsprodukt aus N-β-Hydroxyethyl-N-methylglucamin und Fettalkohol-C12-C14-ethermonoschwefelsäureester mit circa 2 Mol Ethylenoxid,223
4,Nonylbenzolsulfonat (Na-Salz),620
